Source: patent US9802927B2, “Oxadiazine compounds and methods of use thereof” (Denali Therapeutics, Inc., priority 2015, dated 2017)

What follows are compounds tested on Aβ42 (assay: In vitro cell screening assay in H4 cells expressing human APP751: Aβ42 by sandwich ELISA). Settings: Homo sapiens, compounds 0.003-10 μM, incubated overnight (16-18 h), sandwich ELISA of supernatant.
Assay type: cell-based
Procedure, shortened: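 Secreted Aβ42 measured by sandwich ELISA, C-terminal-specific capture and 4G8-HRP detection, TMB read at 450 nm, from supernatants of APP751-expressing H4 cells exposed overnight (16-18 h) to 0.003-10 μM compound in Pro293 medium, 0.33% DMSO. Data scaled between DMSO and DAPT controls; EC50 from variable-slope nonlinear regression.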
For `COc1nc(C2=NOCC(c3cn(C)c4cccc(Cl)c34)N2)ccc1-n1cnc(C)c1` (single isomer, unassigned; (+)) [Example 229A, (+)-5-(4-chloro-1-methyl-1H-indol-3-yl)-3-(6-methoxy-5-(4-methyl-1H-imidazol-1-yl)pyridin-2-yl)-5,6-dihydro-4H-1,2,4-oxadiazine], the EC50 was 28.8 nM.

Same assay, conditions: compounds 0.003-10 μM, incubated overnight (16-18 h), sandwich ELISA of supernatant
Work on `COc1nc(C2=NOCC(c3cccc(S(C)(=O)=O)c3)N2)ccc1-n1cnc(C)c1` (single isomer, unassigned; (+)) [Example 214B, (+)-3-(6-methoxy-5-(4-methyl-1H-imidazol-1-yl)pyridin-2-yl)-5-(3-(methylsulfonyl)phenyl)-5,6-dihydro-4H-1,2,4-oxadiazine] yielded an EC50 of 904 nM.
In the case of `COc1nc(C2=NOCC(c3ccc4sc(C)nc4c3)N2)ccc1-n1cnc(C)c1` (single isomer, unassigned; (+)) [Example 215B, (+)-3-(6-methoxy-5-(4-methyl-1H-imidazol-1-yl)pyridin-2-yl)-5-(2-methylbenzo[d]thiazol-5-yl)-5,6-dihydro-4H-1,2,4-oxadiazine], the EC50 is reported as 52.7 nM.
`COc1nc(C2=NOCC(c3cn(C)c4cc(F)c(Cl)cc34)N2)ccc1-n1cnc(C)c1` (single isomer, unassigned; (+)) [Example 216B, (+)-5-(5-chloro-6-fluoro-1-methyl-1H-indol-3-yl)-3-(6-methoxy-5-(4-methyl-1H-imidazol-1-yl)pyridin-2-yl)-5,6-dihydro-4H-1,2,4-oxadiazine] was tested, and the EC50 was 4.2 nM.
Compound `COc1nc(C2=NOCC(c3ccc(S(C)(=O)=O)cc3)N2)ccc1-n1cnc(C)c1` (single isomer, unassigned; (+)) [Example 217B, (+)-3-(6-methoxy-5-(4-methyl-1H-imidazol-1-yl)pyridin-2-yl)-5-(4-(methylsulfonyl)phenyl)-5,6-dihydro-4H-1,2,4-oxadiazine] has an EC50 of 2050 nM.
`COc1nc(C2=NOCC(c3ccc(C)c(Cl)c3)N2)ccc1-n1cnc(C)c1` (single isomer, unassigned; (+)) [Example 218B, (+)-5-(3-chloro-4-methylphenyl)-3-(6-methoxy-5-(4-methyl-1H-imidazol-1-yl)pyridin-2-yl)-5,6-dihydro-4H-1,2,4-oxadiazine] gave an EC50 of 14.1 nM.
`COc1nc(C2=NOCC(c3cn(C(C)C)c4cc(F)ccc34)N2)ccc1-n1cnc(C)c1` (single isomer, unassigned; (+)) [Example 219A, (+)-5-(6-fluoro-1-isopropyl-1H-indol-3-yl)-3-(6-methoxy-5-(4-methyl-1H-imidazol-1-yl)pyridin-2-yl)-5,6-dihydro-4H-1,2,4-oxadiazine] was tested, and the EC50 was 9.2 nM.
Compound `COc1nc(C2=NOCC(c3cn(C)c4ccc(F)c(F)c34)N2)ccc1-n1cnc(C)c1` (single isomer, unassigned; (+)) [Example 220B, (+)-5-(4,5-difluoro-1-methyl-1H-indol-3-yl)-3-(6-methoxy-5-(4-methyl-1H-imidazol-1-yl)pyridin-2-yl)-5,6-dihydro-4H-1,2,4-oxadiazine] has an EC50 of 5.5 nM.
`COc1nc(C2=NOCC(c3cn(C)c4ccc(C5CC5)cc34)N2)ccc1-n1cnc(C)c1` (single isomer, unassigned; (+)) [Example 221B, (+)-5-(5-cyclopropyl-1-methyl-1H-indol-3-yl)-3-(6-methoxy-5-(4-methyl-1H-imidazol-1-yl)pyridin-2-yl)-5,6-dihydro-4H-1,2,4-oxadiazine] gave an EC50 of 2.9 nM.
With `COc1nc(C2=NOCC(c3cn(C4CC4)c4cccc(F)c34)N2)ccc1-n1cnc(C)c1` (single isomer, unassigned; (+)) [Example 222A, (+)-5-(1-cyclopropyl-4-fluoro-1H-indol-3-yl)-3-(6-methoxy-5-(4-methyl-1H-imidazol-1-yl)pyridin-2-yl)-5,6-dihydro-4H-1,2,4-oxadiazine] the EC50 was 11.2 nM.
With `COc1nc(C2=NOCC(c3cn(C)c4cc(F)c(F)cc34)N2)ccc1-n1cnc(C)c1` (single isomer, unassigned; (+)) [Example 223B, (+)-5-(5,6-difluoro-1-methyl-1H-indol-3-yl)-3-(6-methoxy-5-(4-methyl-1H-imidazol-1-yl)pyridin-2-yl)-5,6-dihydro-4H-1,2,4-oxadiazine] the EC50 was 6.2 nM.
`COc1nc(C2=NOCC(c3ccc4ncccc4c3)N2)ccc1-n1cnc(C)c1` (single isomer, unassigned; (+)) [Example 224B, (+)-3-(6-methoxy-5-(4-methyl-1H-imidazol-1-yl)pyridin-2-yl)-5-(quinolin-6-yl)-5,6-dihydro-4H-1,2,4-oxadiazine] gave an EC50 of 294 nM.
With `COc1nc(C2=NOCC(c3ccc4c(c3)OC(F)(F)O4)N2)ccc1-n1cnc(C)c1` (single isomer, unassigned; (+)) [Example 225B] the EC50 was 14 nM.
Compound `COc1nc(C2=NOCC(c3cn(C)c4cc(F)cc(F)c34)N2)ccc1-n1cnc(C)c1` (single isomer, unassigned; (+)) [Example 226A, (+)-5-(4,6-difluoro-1-methyl-1H-indol-3-yl)-3-(6-methoxy-5-(4-methyl-1H-imidazol-1-yl)pyridin-2-yl)-5,6-dihydro-4H-1,2,4-oxadiazine] has an EC50 of 9.4 nM.
Compound `COc1nc(C2=NOCC(c3ccc(C)cc3)N2)ccc1-n1cnc(C)c1` (single isomer, unassigned; (+)) [Example 227B, (+)-3-(6-methoxy-5-(4-methyl-1H-imidazol-1-yl)pyridin-2-yl)-5-(p-tolyl)-5,6-dihydro-4H-1,2,4-oxadiazine] has an EC50 of 73.8 nM.
Work on `COc1nc(C2=NOCC(c3cn(C4CC4)c4cc(F)ccc34)N2)ccc1-n1cnc(C)c1` (single isomer, unassigned; (+)) [Example 228B, (+)-5-(1-cyclopropyl-6-fluoro-1H-indol-3-yl)-3-(6-methoxy-5-(4-methyl-1H-imidazol-1-yl)pyridin-2-yl)-5,6-dihydro-4H-1,2,4-oxadiazine] yielded an EC50 of 8.4 nM.
For `COc1nc(C2=NOCC(c3cn(C)c4cccc(C(F)(F)F)c34)N2)ccc1-n1cnc(C)c1` (single isomer, unassigned; (+)) [Example 230A, (+)-3-(6-methoxy-5-(4-methyl-1H-imidazol-1-yl)pyridin-2-yl)-5-(1-methyl-4-(trifluoromethyl)-1H-indol-3-yl)-5,6-dihydro-4H-1,2,4-oxadiazine], the EC50 was 105 nM.
In the case of `COc1nc(C2=NOCC(c3cn(C)c4c(F)cccc34)N2)ccc1-n1cnc(C)c1` (single isomer, unassigned; (+)) [Example 231B, (+)-5-(7-fluoro-1-methyl-1H-indol-3-yl)-3-(6-methoxy-5-(4-methyl-1H-imidazol-1-yl)pyridin-2-yl)-5,6-dihydro-4H-1,2,4-oxadiazine], the EC50 is reported as 10.8 nM.
In the case of `COc1nc(C2=NOCC(c3nn(C)c4ccc(Cl)cc34)N2)ccc1-n1cnc(C)c1` (single isomer, unassigned; (+)) [Example 232B, (+)-5-(5-chloro-1-methyl-1H-indazol-3-yl)-3-(6-methoxy-5-(4-methyl-1H-imidazol-1-yl)pyridin-2-yl)-5,6-dihydro-4H-1,2,4-oxadiazine], the EC50 is reported as 12.9 nM.
With `COc1nc(C2=NOCC(c3cn(C)c4ccc(C(F)(F)F)cc34)N2)ccc1-n1cnc(C)c1` (single isomer, unassigned; (+)) [Example 233B, (+)-3-(6-methoxy-5-(4-methyl-1H-imidazol-1-yl)pyridin-2-yl)-5-(1-methyl-5-(trifluoromethyl)-1H-indol-3-yl)-5,6-dihydro-4H-1,2,4-oxadiazine] the EC50 was 1.7 nM.
`COc1nc(C2=NOCC(c3cc4cc(C5CC5)ccc4o3)N2)ccc1-n1cnc(C)c1` (single isomer, unassigned; (+)) [Example 234B, (+)-5-(5-cyclopropylbenzofuran-2-yl)-3-(6-methoxy-5-(4-methyl-1H-imidazol-1-yl)pyridin-2-yl)-5,6-dihydro-4H-1,2,4-oxadiazine] showed an EC50 of 9.5 nM.
In the case of `COc1nc(C2=NOCC(c3ccc(C(C)(C)C)cc3)N2)ccc1-n1cnc(C)c1` (single isomer, unassigned; (+)) [Example 235B, (+)-5-(4-(tert-butyl)phenyl)-3-(6-methoxy-5-(4-methyl-1H-imidazol-1-yl)pyridin-2-yl)-5,6-dihydro-4H-1,2,4-oxadiazine], the EC50 is reported as 9.5 nM.
In the case of `COc1nc(C2=NOCC(c3cc4ccc(C5CC5)cc4o3)N2)ccc1-n1cnc(C)c1` (single isomer, unassigned; (+)) [Example 236B, (+)-5-(6-cyclopropylbenzofuran-2-yl)-3-(6-methoxy-5-(4-methyl-1H-imidazol-1-yl)pyridin-2-yl)-5,6-dihydro-4H-1,2,4-oxadiazine], the EC50 is reported as 9.2 nM.
`COc1nc(C2=NOCC(c3cn(C)c4ccc(Cl)c(F)c34)N2)ccc1-n1cnc(C)c1` (single isomer, unassigned; (+)) [Example 237A, (+)-5-(5-chloro-4-fluoro-1-methyl-1H-indol-3-yl)-3-(6-methoxy-5-(4-methyl-1H-imidazol-1-yl)pyridin-2-yl)-5,6-dihydro-4H-1,2,4-oxadiazine] gave an EC50 of 5 nM.
`COc1nc(C2=NOCC(c3ccc4nc(C)sc4c3)N2)ccc1-n1cnc(C)c1` (single isomer, unassigned; (+)) [Example 238B, (+)-3-(6-methoxy-5-(4-methyl-1H-imidazol-1-yl)pyridin-2-yl)-5-(2-methylbenzo[d]thiazol-6-yl)-5,6-dihydro-4H-1,2,4-oxadiazine] was tested, and the EC50 was 113 nM.
Compound `COc1nc(C2=NOCC(c3ccc(Cl)c(C4CC4)c3)N2)ccc1-n1cnc(C)c1` (single isomer, unassigned; (+)) [Example 239B, (+)-5-(4-chloro-3-cyclopropylphenyl)-3-(6-methoxy-5-(4-methyl-1H-imidazol-1-yl)pyridin-2-yl)-5,6-dihydro-4H-1,2,4-oxadiazine] has an EC50 of 13.1 nM.
With `COc1nc(C2=NOCC(c3ccc4scnc4c3)N2)ccc1-n1cnc(C)c1` (single isomer, unassigned; (+)) [Example 240B, (+)-5-(benzo[d]thiazol-5-yl)-3-(6-methoxy-5-(4-methyl-1H-imidazol-1-yl)pyridin-2-yl)-5,6-dihydro-4H-1,2,4-oxadiazine] the EC50 was 109 nM.
